The numbers were not newly measured in patent publication US20150250776A1, “COMPOSITIONS AND METHODS FOR ORAL DELIVERY OF ENCAPSULATED 3-AMINOPYRIDINE-2-CARBOXALDEHYDE PARTICLES” (NANOTHERAPEUTICS, INC., priority 2014, published 2015), which cites them from elsewhere.

In data set [1] the test system is cell lines selected for resistance to hydroxyurea.
The test system of data set [2] is tumor cell lines. Conditions: tumor cell lines compared with a fibroblast cell line.

The structures appear in SMILES notation.

On to `Nc1cccnc1C=O` [3-AP, 3-aminopyridine-2-carboxaldehyde], for which the “activity in hydroxyurea-resistant cell lines” value in data set [1] is on record as “active”. In addition, in data set [2], the “cytotoxic effects, tumor versus fibroblast cell line” value is listed as “preferential cytotoxic effects”. The “solubility in DMSO” value (DMSO) was “soluble”. Where the note is “aqueous solutions”, the “solubility in aqueous solutions” value is reported as “poor solubility”.
